Data from patent publication US11685732B2, “MYST family histone acetyltransferase inhibitors” (Epizyme, Inc., priority 2017, dated 2023).
Where two headings read alike, the source gives them in different places.

Experiments:
SEM cells = assay: Long term proliferation assay (14-day), SEM; format: cell-based; conditions: 336 h, B-ALL, 14-day timepoint, absolute IC50
Procedure: (§1) Long term proliferation assay. A panel of multiple myeloma (MM) and acute myeloid leukemia (AML) cell lines were tested in 14-day proliferation assays. Exponentially growing cells were plated, in triplicate, in 96-well plates at the appropriate cell density in a final volume of 150 μL. Cells were incubated in the presence of increasing concentrations of compound A-30. Viable cell number was determined at 0, 4, 7, 11, and 14 days using Calcein staining and using an Accumen instrument to enumerate the number of cells. On days of cell counts, growth media and compound A-30 were replaced, and cells split back to initial density. Total cell number is expressed as split-adjusted viable cells per well.
(§2) Calculations were performed as follows:
(§3) First, the inhibition of proliferation was calculated for each well at each treatment concentration at each timepoint with the following formula:
(§4) [formula] Then, for each cell line, concentration response curves were plotted as average and standard deviation from triplicate determinations as percent inhibition vs log of concentration of compound A-30. Absolute IC50 values (concentration of compound at which 50% inhibition occurs) were determined from the curve at each timepoint using Graphpad Prism software. An IC50 value of ≤10 μM is designated as “A”; an IC50 value of >10 μM is designated as “B”.

KAT-6A = KAT-6A (Homo sapiens (Human), UniProt Q92794); assay: KAT-6A biochemical inhibition assay (SAMDI mass spectrometry)
How it was run: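 IC50 values came from SAMDI time-of-flight mass spectrometry after formic acid quench (0.5% final). Acetylation ran 90 min at 25 °C with 1 μM acetyl coenzyme A and 1 μM peptide substrate, following compound pre-incubation with 12.5 nM KAT-6A in Tris buffer pH 8.0 containing DTT, 2% DMSO final.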

MOLM13 cells = assay: Long term proliferation assay (14-day), MOLM13; format: cell-based; conditions: Homo sapiens, MOLM-13, 336 h; MOLM13, AML; 14-day timepoint; absolute IC50
Procedure: as §1, §2, §3, §4

KMS11 cells = assay: Long term proliferation assay (14-day), KMS11; format: cell-based; conditions: Homo sapiens, KMS-11, 336 h; KMS11, MM; 14-day timepoint; absolute IC50
Procedure: as §1, §2, §3, §4

KAT-7 = KAT-7 (Homo sapiens (Human), UniProt O95251); assay: KAT-7 biochemical inhibition assay (SAMDI mass spectrometry)
How it was run: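 Read-out was SAMDI time-of-flight MS of formic acid-quenched reactions (0.5% final). Compound dilutions (2% DMSO final) were pre-incubated with 6 nM KAT-7 in 50 mM Tris pH 8.0 with 1 mM DTT, then given 1 μM peptide substrate and 2 μM acetyl-CoA for 120 min at 25 °C. IC50 values were derived.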

KAT-5 = KAT-5 (Homo sapiens (Human), UniProt Q92993); assay: KAT-5 biochemical inhibition assay (SAMDI mass spectrometry)
How it was run: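 Acetylation of 1 μM peptide by 9 nM enzyme with 0.5 μM acetyl-CoA (final) was run 90 min at 25° C in Tris pH 8.0 buffer with DTT, after compound preincubation at 2% DMSO. Formic acid stopped the reaction, and product was quantified by SAMDI mass spectrometry to derive IC50.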

LP1 cells = assay: Long term proliferation assay (14-day), LP1; format: cell-based; conditions: Homo sapiens, LP-1, 336 h; LP1, MM; 14-day timepoint; absolute IC50
Procedure: as §1, §2, §3, §4

[1] = test system: H3K23 acetylation in CAL-120 cells; assay: Inhibition of acetylation of H3K23 in Human cell line CAL-120; format: cell-based; conditions: CAL-120 cell line, 3 hours, serial dilutions starting at 10 μM; FIG. 1
Procedure: Inhibition of acetylation of H3K23 in Human cell line CAL-120. Cell line CAL-120 was plated in eleven 10 cm tissue culture dishes at a cell density of 4×10^5 cells/cm^2 and treated with ten 2-fold serial dilutions of compound A-30 starting at 10 μM and one dish with DMSO (vehicle control) for 3 hours. Cells were tripsinized, washed twice with ice cold PBS and snap-frozen. Histones were extracted from cell pellets. Protein concentration was assessed and 60 ng of protein sample from histone extraction was prepared in triplicate in 100 μl coating buffer (0.05% w/v BSA in PBS) and added directly to high binding 96 well plates. Plates were left at 4° C. overnight to allow protein to adhere. Coating buffer with histones was discarded and plates blotted, and 100 μL per well of primary antibody solution of rabbit anti-H3K23ac antibody (Millipore 07-355) (1:600) and mouse anti-total H3 antibody (CST-14269) (1:500) in Odyssey buffer with 0.1% Tween 20 (v/v) was added to the wells of the plate and incubated for 1 hour. […]
Calculations were performed as follows: First, the ratio for each well was determined by:
[formula] Then, the average of the ratio values for each test well was calculated and used to determine the percent of H3K23Ac from vehicle for each test well in the plate: […]

OCIAML2 cells = assay: Long term proliferation assay (14-day), OCIAML2; format: cell-based; conditions: Homo sapiens, OCI-AML2, 336 h; OCIAML2, AML; 14-day timepoint; absolute IC50
Procedure: as §1, §2, §3, §4

THP1 cells = assay: Long term proliferation assay (14-day), THP1; format: cell-based; conditions: Homo sapiens, THP-1, 336 h; THP1, AML; 14-day timepoint; absolute IC50
Procedure: as §1, §2, §3, §4

RPMI8226 cells = assay: Long term proliferation assay (14-day), RPMI8226; format: cell-based; conditions: Homo sapiens, RPMI-8226, 336 h; RPMI8226, MM; 14-day timepoint; absolute IC50
Procedure: as §1, §2, §3, §4

OCIAML3 cells = assay: Long term proliferation assay (14-day), OCIAML3; format: cell-based; conditions: Homo sapiens, OCI-AML-3, 336 h, 14-day timepoint, absolute IC50
Procedure: as §1, §2, §3, §4

NOMO1 cells = assay: Long term proliferation assay (14-day), NOMO1; format: cell-based; conditions: Homo sapiens, NOMO-1, 336 h; NOMO1, AML; 14-day timepoint; absolute IC50
Procedure: as §1, §2, §3, §4

KMS34 cells = assay: Long term proliferation assay (14-day), KMS34; format: cell-based; conditions: KMS-34, 336 h; KMS34, MM; 14-day timepoint; absolute IC50
Procedure: as §1, §2, §3, §4

KAT-8 = KAT-8 (Homo sapiens (Human), UniProt Q9H7Z6); assay: KAT-8 biochemical inhibition assay (SAMDI mass spectrometry)
How it was run: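 Acetylation of 1 μM peptide substrate with 5 μM acetyl-CoA by 12.5 nM enzyme, compound pre-incubated, 2% DMSO, Tris pH 8.0 buffer with DTT, 25 °C for 90 min. Quench with 0.5% formic acid; product read by SAMDI mass spectrometry to give IC50.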

Chain of KAT-6A (Q92794 other isoform, or with tags, fused parts or gaps): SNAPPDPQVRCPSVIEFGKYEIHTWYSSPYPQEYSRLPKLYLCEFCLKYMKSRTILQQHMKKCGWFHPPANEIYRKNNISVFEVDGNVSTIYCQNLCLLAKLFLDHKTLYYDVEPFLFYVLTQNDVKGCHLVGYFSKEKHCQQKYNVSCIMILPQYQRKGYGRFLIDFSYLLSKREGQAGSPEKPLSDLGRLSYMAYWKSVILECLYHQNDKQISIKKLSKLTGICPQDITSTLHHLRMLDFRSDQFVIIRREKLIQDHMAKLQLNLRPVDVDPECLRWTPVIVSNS
Chain of KAT-7 (O95251 other isoform, or with tags, fused parts or gaps): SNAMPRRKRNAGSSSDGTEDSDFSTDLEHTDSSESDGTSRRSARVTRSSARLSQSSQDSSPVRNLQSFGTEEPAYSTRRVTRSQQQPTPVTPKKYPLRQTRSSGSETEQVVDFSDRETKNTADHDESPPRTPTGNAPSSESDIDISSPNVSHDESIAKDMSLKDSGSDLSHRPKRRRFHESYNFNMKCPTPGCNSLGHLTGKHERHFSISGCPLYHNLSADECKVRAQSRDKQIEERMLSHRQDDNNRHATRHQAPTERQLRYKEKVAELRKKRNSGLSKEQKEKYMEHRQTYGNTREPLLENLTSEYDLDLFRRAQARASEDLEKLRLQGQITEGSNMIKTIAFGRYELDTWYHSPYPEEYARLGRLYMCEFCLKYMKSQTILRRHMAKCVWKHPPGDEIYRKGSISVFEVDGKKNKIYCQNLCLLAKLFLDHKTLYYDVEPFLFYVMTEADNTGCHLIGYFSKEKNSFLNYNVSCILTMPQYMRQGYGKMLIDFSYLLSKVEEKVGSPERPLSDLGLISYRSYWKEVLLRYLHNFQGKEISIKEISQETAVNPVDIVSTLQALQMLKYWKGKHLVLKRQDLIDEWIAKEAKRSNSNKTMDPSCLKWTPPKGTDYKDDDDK
Chain of KAT-8 (Q9H7Z6 other isoform, or with tags, fused parts or gaps): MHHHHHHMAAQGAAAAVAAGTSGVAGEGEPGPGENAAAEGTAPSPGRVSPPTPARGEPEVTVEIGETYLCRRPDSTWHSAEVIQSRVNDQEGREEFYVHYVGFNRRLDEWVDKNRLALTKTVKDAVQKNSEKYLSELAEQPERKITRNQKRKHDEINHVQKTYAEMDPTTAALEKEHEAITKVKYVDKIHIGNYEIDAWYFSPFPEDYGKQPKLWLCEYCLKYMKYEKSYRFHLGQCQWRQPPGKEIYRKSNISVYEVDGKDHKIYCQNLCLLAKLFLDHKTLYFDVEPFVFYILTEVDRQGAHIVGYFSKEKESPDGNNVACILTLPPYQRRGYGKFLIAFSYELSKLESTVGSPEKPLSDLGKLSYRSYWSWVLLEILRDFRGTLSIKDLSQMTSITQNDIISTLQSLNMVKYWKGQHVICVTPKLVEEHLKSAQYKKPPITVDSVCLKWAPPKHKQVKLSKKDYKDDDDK
Chain of KAT-5 (Q92993 other isoform, or with tags, fused parts or gaps): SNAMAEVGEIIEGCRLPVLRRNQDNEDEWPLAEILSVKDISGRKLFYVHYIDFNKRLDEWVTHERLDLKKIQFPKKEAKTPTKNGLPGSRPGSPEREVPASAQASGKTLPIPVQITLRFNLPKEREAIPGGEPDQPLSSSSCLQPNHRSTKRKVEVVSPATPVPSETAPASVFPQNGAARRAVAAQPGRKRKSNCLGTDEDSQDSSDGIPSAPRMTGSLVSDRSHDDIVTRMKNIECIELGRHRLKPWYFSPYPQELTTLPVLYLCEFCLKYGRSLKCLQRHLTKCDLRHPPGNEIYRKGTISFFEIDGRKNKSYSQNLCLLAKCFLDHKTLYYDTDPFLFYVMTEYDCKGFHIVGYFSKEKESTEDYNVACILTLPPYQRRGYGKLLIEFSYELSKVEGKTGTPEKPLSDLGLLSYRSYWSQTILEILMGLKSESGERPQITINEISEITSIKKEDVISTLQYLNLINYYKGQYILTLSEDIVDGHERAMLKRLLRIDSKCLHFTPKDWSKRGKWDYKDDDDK

| SMILES | IC50 (KAT-6A) | IC50 (KAT-7) | IC50 (KAT-8) | IC50 (KAT-5) | also measured |
| --- | --- | --- | --- | --- | --- |
| COCc1cc(Cl)c(F)c(C(=O)NNS(=O)(=O)c2cccc(O)c2)c1 [Compound A-30] |  |  |  |  | IC50 (SEM cells): > 10 µM; IC50 (KAT-6A; Table 5): ≤ 1 µM; IC50 (MOLM13 cells): > 10 µM; IC50 (KMS11 cells): ≤ 10 µM; IC50 (KAT-7; Table 5): ≤ 10 µM; IC50 (KAT-5; Table 5): ≤ 10 µM; IC50 (LP1 cells): ≤ 10 µM; inhibition of acetylation of H3K23 [1]: inhibition of acetylation of H3 K23; IC50 (OCIAML2 cells): > 10 µM; IC50 (THP1 cells): > 10 µM; IC50 (RPMI8226 cells): ≤ 10 µM; IC50 (OCIAML3 cells): ≤ 10 µM; IC50 (NOMO1 cells): ≤ 10 µM; IC50 (KMS34 cells): ≤ 10 µM |
| COCC(=O)N1CCC(CS(=O)(=O)NNC(=O)c2cc(-c3cn(C)cn3)cc(Cl)c2F)C1 (stereo not shown) [Compound I-62] | 10 to 50 µM | < 10 µM | 10 to 50 µM | 10 to 50 µM |  |
| Cc1ncn(-c2cc(Cl)c(F)c(C(=O)NNS(=O)(=O)CC3CCOCC3)c2)n1 [Compound I-74] | 10 to 50 µM | 10 to 50 µM | 10 to 50 µM | 10 to 50 µM |  |
| CN1CC(CS(=O)(=O)NNC(=O)c2cc(-c3cn(C)cn3)cc(Cl)c2F)CC1=O (stereo not shown) [Compound I-224] | 10 to 50 µM | < 10 µM | 10 to 50 µM | 10 to 50 µM |  |
| O=C(NNS(=O)(=O)CC1CCCNC1)c1cc(-c2ccccc2)cc(Cl)c1F (stereo not shown) [A, reference compound] |  |  |  |  | IC50 (KAT-6A; Table 6, comparative compounds): 10 to 50 µM; IC50 (KAT-7; Table 6, comparative compounds): 50 to 100 µM; IC50 (KAT-8; Table 6, comparative compounds): > 100 µM; IC50 (KAT-5; Table 6, comparative compounds): 10 to 50 µM |
| CCn1cnc(-c2cc(Cl)c(F)c(C(=O)NNS(=O)(=O)CC3CCCCC3)c2)c1C [Compound I-28] | > 100 µM | < 10 µM | > 100 µM | 10 to 50 µM |  |

Further lines, with some results ahead:

| IC50 (KAT-6A) | IC50 (KAT-7) | IC50 (KAT-8) | IC50 (KAT-5) | SMILES | also measured |
| --- | --- | --- | --- | --- | --- |
| < 10 µM | < 10 µM | 10 to 50 µM | < 10 µM | COc1ccc(CN(C)C(=O)N2CC(CS(=O)(=O)NNC(=O)c3cc(-c4cn(C)cn4)cc(Cl)c3F)C2)cc1 [Compound I-202] |  |
| < 10 µM | < 10 µM | 10 to 50 µM | 10 to 50 µM | Cn1cnc(-c2cc(Cl)c(F)c(C(=O)NNS(=O)(=O)CC3CN(C(=O)OC(C)(C)C)C3)c2)c1 [Compound I-95] |  |
| < 10 µM | < 10 µM | > 100 µM | < 10 µM | O=C(NNS(=O)(=O)CC1CCCCC1)c1cc(-c2ccccn2)cc(Cl)c1F [Compound I-5] |  |
| < 10 µM | < 10 µM | 10 to 50 µM | 10 to 50 µM | Cn1cnc(-c2cc(Cl)c(F)c(C(=O)NNS(=O)(=O)C[C@H]3C[C@H](NC(N)=O)C3)c2)c1 [Compound I-207] |  |
| < 10 µM | < 10 µM | 10 to 50 µM | < 10 µM | Cn1cnc(-c2cc(Cl)c(F)c(C(=O)NNS(=O)(=O)C[C@H]3C[C@H](NC(=O)OC(C)(C)C)C3)c2)c1 [Compound I-124] |  |
| < 10 µM | < 10 µM | 10 to 50 µM | < 10 µM | COc1ccc(CN(C)C(=O)N2CC[C@@H](CS(=O)(=O)NNC(=O)c3cc(-c4cn(C)cn4)cc(Cl)c3F)C2)cc1 [Compound I-179] |  |
